From patent US4450269A, “Mono-5-substituted-3-chloro-4H-1,2,6-thiadiazin-4-one antifungal agents” (FMC Corporation, priority 1980, dated 1984)

System: Fusarium solani
Test: Mycelial growth test
Assay type: cell-based
Details: Fusarium solani, 72 h; for inhibition at 5 ppm / inhibition at 10 ppm / inhibition at 20 ppm: PS, 72 hours, read-out: Percent Fungus Growth Inhibition; for inhibition at 40 ppm: read-out: Percent Fungus Growth Inhibition, PS, 40 ppm, 72 hours

Row | Compound | inhibition at 5 ppm | inhibition at 10 ppm | inhibition at 20 ppm | inhibition at 40 ppm
1 | O=C(O)Cc1ccccc1Oc1nsnc(Cl)c1=O [Compound 45, 3-(2-carboxymethylphenoxy)-5-chloro-4H--1,2,6-thiadiazin-4-one] | 0% | 0% | 6% | 31%
2 | N#CCc1ccc(Oc2nsnc(Cl)c2=O)cc1 [Compound 46, 3-chloro-5-[(4-cyanomethyl)-phenoxy]4H--1,2,6-thiadiazin-4-one] | 35% | 70% | 90% | 100%
3 | CC(=O)c1ccc(Oc2nsnc(Cl)c2=O)cc1 [Compound 47, 3-(4-acetylphenoxy)-5-chloro-4H--1,2,6-thiadiazin-4-one] | 38% | 50% | 100% | 100%
4 | CC(=O)c1cccc(Oc2nsnc(Cl)c2=O)c1 [Compound 48, 3-(3-acetylphenoxy)-5-chloro-4H--1,2,6-thiadiazin-4-one] | 38% | 50% | 100% | 100%
5 | CC(=O)c1ccccc1Oc1nsnc(Cl)c1=O [Compound 49, 3-(2-acetylphenoxy)-5-chloro-4H--1,2,6-thiadiazin-4-one] | 0% | 7% | 34% | 67%
6 | O=C(O)c1ccc(Oc2nsnc(Cl)c2=O)cc1 [Compound 50, 3-(4-carboxyphenoxy)-5-chloro-4H--1,2,6-thiadiazin-4-one] | 25% | 38% | 63% | 100%
7 | COc1ccc(Cl)c(Oc2nsnc(Cl)c2=O)c1 [Compound 51, 3-chloro-5-[(2-chloro-5-methoxy)phenoxy]-4H--1,2,6-thiadiazin-4-one] | 60% | 85% | 100% | 100%
8 | COc1cc(Cl)cc(Oc2nsnc(Cl)c2=O)c1 [Compound 52, 3-chloro-5-[(3-chloro-5-methoxy)phenoxy]-4H--1,2,6-thiadiazin-4-one] | 80% | 90% | 100% | 100%
9 | O=c1c(Cl)nsnc1Oc1ccc([N+](=O)[O-])cc1Cl [Compound 53, 3-chloro-5-(2-chloro-4-nitrophenoxy)-4H--1,2,6-thiadiazin-4-one] | 42% | 68% | 100% | 100%
10 | Cc1cc(Oc2nsnc(Cl)c2=O)ccc1Cl [Compound 54, 3-chloro-5-(4-chloro-3-methylphenoxy)-4H--1,2,6-thiadiazin-4-one] | 27% | 30% | 20% | 20%
11 | Cc1cc(Cl)ccc1Oc1nsnc(Cl)c1=O [Compound 55, 3-chloro-5-(4-chloro-2-methylphenoxy)-4H--1,2,6-thiadiazin-4-one] | 0% | 13% | 17% | 20%
12 | Cc1ccc(Oc2nsnc(Cl)c2=O)c(Br)c1 [Compound 57, 3-[(2-bromo-4-methyl)-phenoxy]-5-chloro-4H--1,2,6-thiadiazin-4-one] | 88% | 100% | 100% | 100%
13 | Cc1cc(Cl)c(Oc2nsnc(Cl)c2=O)cc1C [Compound 58, 3-chloro-5-[(2-chloro-4,5-dimethyl)phenoxy]-4H--1,2,6-thiadiazin-4-one] | 56% | 56% | 56% | 44%
14 | Cc1cc(Oc2nsnc(Cl)c2=O)cc(C)c1Cl [Compound 59, 3-chloro-5-[(4-chloro-3,5-dimethyl)phenoxy]-4H--1,2,6-thiadiazin-4-one] | 50% | 56% | 69% | 56%
15 | Cc1cc(Oc2nsnc(Cl)c2=O)cc(C)c1Br [Compound 60, 3-[(4-bromo-3,5-dimethyl)-phenoxy]-5-chloro-4H--1,2,6-thiadiazin-4-one] | 63% | 50% | 56% | 75%
16 | COc1cc(Oc2nsnc(Cl)c2=O)cc(OC)c1C(C)=O [Compound 61, 3-[(4-acetyl-3,5-dimethoxy)-phenoxy]-5-chloro-4H--1,2,6-thiadiazin-4-one] | 16% | 46% | 23% | 0%
